IC50 data for 11 compounds are collected here from patent publication US7550589B2, “6-(2-alkyl-phenyl)-pyrido[2,3-D]pyrimidines useful as protein kinase inhibitors” (Hoffman-La Roche Inc., priority 2004, dated 2009).

One assay deals with T1, Src (p60^c-src) (Homo sapiens, UniProt P12931).
T1 construct: purchased UBI, Upstate Biotech, Inc
The assay is described as follows: SRC-Inhibitor-Assay, time-resolved fluorescence kinase assay (Src). Type of assay: biochemical. Particulars: ATP 5 μM; peptide 10 μM; enzyme 2.5 U/ml; pre-incubated 15 min at 15° C. The text has this: (§1) The activity of the compounds according to this invention as inhibitors for the src-family tyrosine kinases was shown by using the following assay.
(§2) SRC-Inhibitor-Assay Parameters:
(§3) Eu-labelled Phosphotyrosine Antibody: for Lck Cisbio Mab PT66-K, • for Src EG&G Wallac PT66 Eu-W1024 (all commercially available).
(§4) Peptides: Ro: NH2-A-E-E-E-I-Y-G-E-F-E-A-K-K-K-K-CONH2, and • Ja133-Ro: Ja133-G-Aminocaprylic acid-A-E-E-E-I-Y-G-E-F-E-A-K-K-K-K-CONH2, wherein Ja133 is LightCycler-Red 640-N-hydroxy succinimide ester; • whereby both peptides were synthesized by an optimized solid phase peptide synthesis protocol (Merrifield, Fed. Proc. Fed. Amer. Soc. Exp. Biol. 21 (1962) 412) on a Zinsser SMP350 peptide synthesizer. Shortly, the peptide was assembled on 160 mg (22.8 μmol scale) of a Rink-Linker modified polystyrene solid phase by repeatedly conjugating an twenty fold excess of amino acids each protected by temporary piperidine labile Fmoc- and permanent acid labile tert-Bu—, BOC- and O-tert-Bu-groups depending on the side chain function. The substrate sequence AEEEIYGEFEAKKKK was N-terminal additionally mounted with the spacer amino acids Aminocaprylic acid and Glycin. After cleavage of the N-terminal temporary protecting group the still attached and protected peptide was labeled with a 1.5 fold amount of LightCycler-Red 640-N-hydroxy succinimide ester (purchased from Roche Diagnostics GmbH) and triethylamine. After 3 hrs. the resin was washed with Dimethylformamide and Isopropanol until the eluates of the blue resin got colourless. […] The substrate was finally isolated by a preparative reverse phase HPLC purification. The purification yielded 12.2 mg RP-HPLC single peak pure blue material (lyophilisate). The identity was proven by MALDI mass spectroscopy [2720.0].
(§5) Enzymes: Upstate Lck (p56^lck, active), Upstate Src (p60^c-src, partially purified) were purchased from UBI, Upstate Biotech, Inc.
(§6) Time-resolved Fluorescence Assay: Reader: Perkin Elmer, Wallac Viktor 1420-040 multilabel counter; Liquid handling system: Beckman Coulter, Biomek 2000.
(§7) ATP, Tween™ 20, 4-(2-hydroxyethyl)-1-piperazineethanesulfonic acid (HEPES) were purchased from Roche Molecular Biochemicals, MgCl2 and MnCl2 were purchased from Merck Eurolab, Tris(2-carboxyethyl)phosphine hydrochloride (TCEP) was purchased from Pierce, 384 Well low volume fluorescence plates was purchased from Falcon.
(§8) At first the enzyme is pre-incubated for 15 min. at 15° C. in aqueous solution with corresponding amounts of inhibitors according to this invention. Then the phosphorylation reaction is started by adding a reaction mixture, containing ATP, Peptide and PT66, and subsequent shaking. The proceeding of this reaction is immediately monitored using time resolved fluorescence spectroscopy in a suitable well plate reader.
(§9) The IC50-values can be obtained from the reaction rates by using a non-linear curve fit (XLfit software (ID Business Solution Ltd., Guilford, Surrey, UK))

A further assay deals with T2, Lck (p56^lck) (Homo sapiens, UniProt P06239).
T2 construct: purchased UBI, Upstate Biotech, Inc
Briefly: SRC-Inhibitor-Assay, time-resolved fluorescence kinase assay (Lck). The assay is classed as biochemical. Particulars: ATP 5 μM; peptide 10 μM; enzyme 2.5 U/ml; pre-incubated 15 min at 15° C.
Source text: as §1, §2, §3, §4, §5, §6, §7, §8, §9

T2 sequence (P06239 whole entry, species assumed): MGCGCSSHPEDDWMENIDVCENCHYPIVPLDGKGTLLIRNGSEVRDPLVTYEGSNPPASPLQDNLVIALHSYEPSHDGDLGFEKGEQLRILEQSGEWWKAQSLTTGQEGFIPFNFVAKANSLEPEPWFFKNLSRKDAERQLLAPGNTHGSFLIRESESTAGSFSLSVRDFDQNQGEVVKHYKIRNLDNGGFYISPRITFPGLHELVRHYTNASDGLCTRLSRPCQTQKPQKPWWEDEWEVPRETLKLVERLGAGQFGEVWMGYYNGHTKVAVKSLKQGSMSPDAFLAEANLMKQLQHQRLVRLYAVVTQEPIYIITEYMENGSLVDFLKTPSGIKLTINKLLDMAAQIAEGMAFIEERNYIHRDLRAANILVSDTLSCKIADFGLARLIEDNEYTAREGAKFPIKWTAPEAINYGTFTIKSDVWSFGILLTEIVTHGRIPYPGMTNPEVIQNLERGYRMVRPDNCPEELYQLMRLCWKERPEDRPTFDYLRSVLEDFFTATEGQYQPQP
T1 sequence (P12931 whole entry): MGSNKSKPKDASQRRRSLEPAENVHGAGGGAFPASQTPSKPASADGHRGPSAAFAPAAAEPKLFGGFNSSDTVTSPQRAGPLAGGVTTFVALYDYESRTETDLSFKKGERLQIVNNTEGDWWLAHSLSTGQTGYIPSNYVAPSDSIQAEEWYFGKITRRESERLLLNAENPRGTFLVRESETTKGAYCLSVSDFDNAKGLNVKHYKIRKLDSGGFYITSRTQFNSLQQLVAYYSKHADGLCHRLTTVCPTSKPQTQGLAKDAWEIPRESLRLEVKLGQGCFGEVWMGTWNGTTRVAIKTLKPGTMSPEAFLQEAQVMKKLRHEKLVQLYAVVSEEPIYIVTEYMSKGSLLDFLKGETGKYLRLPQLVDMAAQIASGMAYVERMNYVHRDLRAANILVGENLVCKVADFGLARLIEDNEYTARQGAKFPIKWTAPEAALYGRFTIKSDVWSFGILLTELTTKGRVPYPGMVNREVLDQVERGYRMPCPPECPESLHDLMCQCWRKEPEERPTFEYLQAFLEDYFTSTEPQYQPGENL

What is called IC50 is the concentration needed to halve the response being measured. As for `CC(=O)Nc1cccc(Nc2ncc3cc(-c4ccccc4C)c(C(=O)NC[C@H]4CCCN4)nc3n2)c1` [Example 1, (R)-2-(3-Acetylamino-phenylamino)-6-o-tolyl-pyrido[2,3-d]pyrimidine-7-carboxylic acid (pyrrolidin-2-ylmethyl)-amide], the IC50 on Src (p60^c-src) was determined as 0.7 nM; against Lck (p56^lck) it was 8 nM.
For `CS(=O)(=O)NCCNC(=O)c1nc2nc(Nc3ccc4c(c3)S(=O)(=O)CCO4)ncc2cc1-c1ccccc1C(F)(F)F` [Example 2, 2-(4,4-Dioxo-3,4-dihydro-2H-4lambda*6*-benzo[1,4]oxathiin-6-ylamino)-6-(2-trifluoromethyl-phenyl)-pyrido[2,3-d]pyrimidine-7-carboxylic acid (2-methanesulfonylamino-ethyl)-amide], the IC50 against Src (p60^c-src) is 5 to 50 nM; at Lck (p56^lck), 20 to 50 nM.
For `CC(=O)Nc1cccc(Nc2ncc3cc(-c4ccccc4C)c(C(=O)NCCNS(C)(=O)=O)nc3n2)c1` [Example 3, 2-(3-Acetylamino-phenylamino)-6-o-tolyl-pyrido[2,3-d]pyrimidine-7-carboxylic acid (2-methanesulfonylamino-ethyl)-amide], the results for the IC50 against Src (p60^c-src) and against Lck (p56^lck) were 1 nM and 11.8 nM, respectively.
For `Cc1ccccc1-c1cc2cnc(Nc3ccc(N4CCOCC4)cc3)nc2nc1C(=O)NCCNS(C)(=O)=O` [Example 5, 2-(4-Morpholin-4-yl-phenylamino)-6-o-tolyl-pyrido[2,3-d]pyrimidine-7-carboxylic acid (2-methanesulfonylamino-ethyl)-amide] the same measures were 0.5 to 5 nM and 1 to 20 nM.
For `Cc1ccccc1-c1cc2cnc(Nc3ccc(N4CCOCC4)cc3)nc2nc1C(=O)NC[C@H]1CCCN1` [Example 7, (R)-2-(4-Morpholin-4-yl-phenylamino)-6-o-tolyl-pyrido[2,3-d]pyrimidine-7-carboxylic acid (pyrrolidin-2-ylmethyl)-amide] the same measures were 0.5 to 5 nM and 1 to 20 nM.
Regarding `CNCCNC(=O)c1nc2nc(Nc3cccc(NC(C)=O)c3)ncc2cc1-c1ccccc1C` [Example 8, 2-(3-Acetylamino-phenylamino)-6-o-tolyl-pyrido[2,3-d]pyrimidine-7-carboxylic acid (2-methylamino-ethyl)-amide], the figures for the IC50 against Src (p60^c-src) and against Lck (p56^lck) were 0.5 to 5 nM and 1 to 20 nM, respectively.
`CNCCNC(=O)c1nc2nc(Nc3cccc(NS(C)(=O)=O)c3)ncc2cc1-c1ccccc1C` [Example 9, 2-(3-Methanesulfonylamino-phenylamino)-6-o-tolyl-pyrido[2,3-d]pyrimidine-7-carboxylic acid (2-methylamino-ethyl)-amide]: the IC50 against Src (p60^c-src) was in the range of 0.5 to 5 nM; on Lck (p56^lck) it was 1 to 20 nM.
As to `CS(=O)(=O)NCCNC(=O)c1nc2nc(Nc3ccc(N4CCOCC4)cc3)ncc2cc1-c1ccccc1C(F)(F)F` [Example 11, 2-(4-Morpholin-4-yl-phenylamino)-6-(2-trifluoromethyl-phenyl)-pyrido[2,3-d]pyrimidine-7-carboxylic acid (2-methanesulfonylamino-ethyl)-amide], the IC50 against Src (p60^c-src) lay within 0.5 to 5 nM; against Lck (p56^lck), 1 to 20 nM.
As for `O=C(NC[C@H]1CCCN1)c1nc2nc(Nc3ccc(N4CCOCC4)cc3)ncc2cc1-c1ccccc1C(F)(F)F` [Example 14, (R)-2-(4-Morpholin-4-yl-phenylamino)-6-(2-trifluoromethyl-phenyl)-pyrido[2,3-d]pyrimidine-7-carboxylic acid (pyrrolidin-2-ylmethyl)-amide], the IC50 against Src (p60^c-src) lay within 0.5 to 5 nM; against Lck (p56^lck), 1 to 20 nM.
Turning to `CC(=O)Nc1cccc(Nc2ncc3cc(-c4ccccc4C(F)(F)F)c(C(=O)NC[C@H]4CCCN4)nc3n2)c1` [Example 15, (R)-2-(3-Acetylamino-phenylamino)-6-(2-trifluoromethyl-phenyl)-pyrido[2,3-d]pyrimidine-7-carboxylic acid (pyrrolidin-2-ylmethyl)-amide], the IC50 against Src (p60^c-src) lay within 0.5 to 5 nM; against Lck (p56^lck) it was 1 to 20 nM.
For `O=C(NC[C@H]1CCCN1)c1nc2nc(Nc3ccc4c(c3)S(=O)(=O)CCO4)ncc2cc1-c1ccccc1C(F)(F)F` [Example 17, (R)-2-(4,4-Dioxo-3,4-dihydro-2H-4lambda*6*-benzo[1,4]oxathiin-6-ylamino)-6-(2-trifluoromethyl-phenyl)-pyrido[2,3-d]pyrimidine-7-carboxylic acid (pyrrolidin-2-ylmethyl)-amide] the same measures were 5 to 50 nM and 20 to 50 nM.
